Experimental findings from patent publication US20260364080A1, “PYRAZOLO-PYRIMIDINONE COMPOUNDS FOR USE IN METHODS OF INHIBITING WEE1 A KINASE” (Acrivon Therapeutics, Inc., priority 2023, published 2026) are described below.

Assay [1] concerns the target T1, recombinant human Wee1A kinase (Homo sapiens, UniProt P30291).
T1 construct: full length Wee1 kinase was expressed by baculovirus in insect cells; purchased Invitrogen PV3817; host or cells: insect cells (baculovirus)
The assay can be described thus: Wee1A kinase binding assay (LanthaScreen Eu time-resolved FRET). Particulars: 30 nM tracer 178, 5 nM Wee1A kinase, 2 nM Eu-labeled antibody; 60 minutes at room temperature; read-out: Wee1A kinase Binding IC50. The essentials: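 Full-length, baculovirus-expressed GST-tagged Wee1A (5 nM) was mixed with 2 nM Eu-anti-GST antibody, 30 nM kinase tracer 178 and compound (1% DMSO). Buffer was 50 mM HEPES pH 7.5, 10 mM MgCl2, 1 mM EGTA, 0.01% Brij-35, incubated 60 min at room temperature. TR-FRET 665/615 nm emission ratios from duplicates were curve-fitted.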
A general note: In TR-FRET formats the signal depends on donor and acceptor labels being close together.

The target of assay [2] is T2, Myt1 kinase (recombinant PMYT-1) (Homo sapiens, UniProt Q99640).
T2 construct: full length PMYT-1 was expressed by baculovirus in insect cells; purchased Invitrogen A30984; host or cells: insect cells (baculovirus)
T2 sequence (Q99640 1-499): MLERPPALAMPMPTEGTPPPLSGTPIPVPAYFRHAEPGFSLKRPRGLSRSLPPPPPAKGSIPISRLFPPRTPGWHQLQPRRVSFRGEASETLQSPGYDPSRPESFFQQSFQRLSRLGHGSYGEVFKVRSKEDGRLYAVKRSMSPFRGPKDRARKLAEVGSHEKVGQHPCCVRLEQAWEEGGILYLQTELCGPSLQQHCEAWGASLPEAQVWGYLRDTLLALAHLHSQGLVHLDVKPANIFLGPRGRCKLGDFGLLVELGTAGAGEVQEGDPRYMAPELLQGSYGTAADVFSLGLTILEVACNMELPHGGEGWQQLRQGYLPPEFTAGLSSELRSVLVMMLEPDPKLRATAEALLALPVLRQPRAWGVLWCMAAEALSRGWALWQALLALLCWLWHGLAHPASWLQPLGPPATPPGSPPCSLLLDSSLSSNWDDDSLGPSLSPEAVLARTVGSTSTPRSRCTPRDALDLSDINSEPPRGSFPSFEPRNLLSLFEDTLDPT
Kind of assay: Myt1 kinase binding assay (LanthaScreen Eu Kinase Binding Assay). The note with it: 3 nM tracer 178, 2.5 nM PMYT-1, 1 nM Eu-labeled antibody; read-out: Myt1 kinase Binding IC50. A digest of the protocol: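 The binding affinity of compounds for Myt1 kinase was measured with a LanthaScreen Europium (Eu) Kinase Binding Assay, a time-resolved FRET format in which test compounds compete against a labeled kinase tracer, and the results were expressed as IC50 values describing compound binding to Myt1.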

The target in assay [3] is T3, Myt1 kinase (CDK1 Thr14 phosphorylation in DAOY medulloblastoma cells) (Homo sapiens, UniProt Q99640).
T3 construct: pCDK1 Thr14 AlphaLISA read-out
T3 sequence (Q99640 1-499): T2 sequence (Q99640 1-499)
Kind of assay: AlphaLISA assay, Myt1 kinase target engagement (phospho-CDK1 Thr14) in DAOY cells. The class given is cell-based. The note with it: 4 h treatment, read-out: CDK1 Thr14 Phosphorylation EC50. How it is done: Each of an ACHN renal cell carcinoma cell line (ATCC) and a DAOY medulloblastoma cell line, and an A427 lung cancer line were cultured in Minimum Essential Medium Eagle supplemented with 10% fetal calf serum (Sigma), 1% Penicillin-Streptomycin and 10 mM HEPES buffer (HyClone). Cell cultures were kept in a humidified incubator at 37 °C and 5% CO2. Cells were routinely tested for Mycoplasma contamination.
For target engagement assessment of Myt1 kinase inhibition, quantification of Cdk1 phosphorylated on threonine 14 was detected using the AlphaLISA® SureFire® Ultra™ Human Phospho-CDK1 (Thr14) assay (Perkin Elmer). DAOY or ACHN cells were seeded into tissue culture treated 96-well plates (VWR) to a density of 10,000 or 20,000 cells per well respectively. 24 h post seeding cells were treated for 4 h with compounds at concentrations ranging from 7 to 5000 nM. Cells were washed with PBS and lysed in 50 μl AlphaLISA lysis buffer before freezing at −80 C. Ten ul of the lysate was transferred to 384 well plates and incubated with AlphaLISA donor and acceptor beads according to the manufacturer's instructions. Dose response curves and EC50 values were calculated and visualized using GraphPad Prism version 9. Target engagement for Myt1 kinase can also be measured using the same AlphaLISA assay in OVCAR3 cells, an ovarian cancer cell line. NIH:OVCAR-3 (OVCAR3) cells are cultured in RPMI-1640 medium supplemented with 0.01 mg/ml insulin, 20% FBS, 1% Penicillin-Streptomycin and 10 mM HEPES buffer. 14,000 cells per well are seeded into 96 well tissue culture plates in full medium. Twenty-four hours post seeding, cells are treated with compound for 4 hours at concentrations ranging from 0.017 nM to 1000 nM.

In assay [4] the target is T4, Wee1A kinase (CDK1 Tyr15 phosphorylation in ACHN renal cell carcinoma cells) (Homo sapiens, UniProt P30291).
T4 construct: pCDK1 Tyr15 immunofluorescence read-out
The assay can be described thus: High-content imaging of pCdk1 Y15, Wee1A kinase target engagement in ACHN cells. The class given is cell-based. The note with it: 4 h treatment, nuclear positivity for pCdk1 Y15 vs DMSO control, read-out: CDK1 Tyr15 Phosphorylation EC50. A digest of the protocol: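 ACHN cells exposed to compound for 4 h over 7–5,000 nM or 0.3–200 nM, then fixed and immunostained for pCDK1 Y15 with DAPI nuclear counterstain. The percentage of pCdk1 Y15 nucleus-positive cells relative to DMSO control was imaged per well; EC50 from dose-response curves.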

In assay [5] the test system is ACHN cells. Kind of assay: Cell Titer Glo viability assay, ACHN cells. It counts as cell-based. The note with it: Homo sapiens, 144 h, absolute EC50. A digest of the protocol:
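Cells grown in MEM with 10% FCS were seeded at 500 (A427), 400 (ACHN) or 250 (DAOY) per well and treated the next day with compound at 17 to 10 000 nM. Viability relative to untreated control was read at 144 h by CellTiter-Glo 2.0.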

T1 sequence (P30291 whole entry): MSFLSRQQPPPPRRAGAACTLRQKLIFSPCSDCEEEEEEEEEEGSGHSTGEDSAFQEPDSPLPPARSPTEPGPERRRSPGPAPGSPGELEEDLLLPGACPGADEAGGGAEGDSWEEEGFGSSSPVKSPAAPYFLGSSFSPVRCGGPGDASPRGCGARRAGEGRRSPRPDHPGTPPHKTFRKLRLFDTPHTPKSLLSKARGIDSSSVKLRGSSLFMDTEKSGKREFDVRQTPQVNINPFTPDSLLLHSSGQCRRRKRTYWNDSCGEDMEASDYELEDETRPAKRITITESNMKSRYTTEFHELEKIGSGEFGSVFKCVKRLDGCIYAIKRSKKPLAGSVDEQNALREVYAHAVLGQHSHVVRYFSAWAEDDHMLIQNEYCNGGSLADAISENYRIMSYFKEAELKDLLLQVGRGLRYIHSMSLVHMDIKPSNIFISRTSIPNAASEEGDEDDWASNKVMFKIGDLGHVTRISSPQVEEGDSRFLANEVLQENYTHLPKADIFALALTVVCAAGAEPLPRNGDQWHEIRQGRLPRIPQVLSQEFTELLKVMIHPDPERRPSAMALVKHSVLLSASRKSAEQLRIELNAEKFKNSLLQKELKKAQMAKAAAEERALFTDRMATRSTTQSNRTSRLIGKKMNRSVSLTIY
T4 sequence (P30291 whole entry): as above

Broadly, the IC50 is the midpoint of a concentration-inhibition curve. For orientation: EC50 means the concentration that produces a half-maximal response. `C=CCn1c(=O)c2cnc(Nc3ccc4[nH]ncc4c3)nc2n1-c1cccc(OC2CCN(C)CC2)n1` [Compound 238, 6-((1H-indazol-5-yl)amino)-2-allyl-1-(6-((1-methylpiperidin-4-yl)oxy)pyridin-2-yl)-1,2-dihydro-3H-pyrazolo[3,4-d]pyrimidin-3-one]: the values for the concentration for half-maximal inhibition (IC50) in assay [1] and in assay [2] were under 10 nM and 20 to 100 nM, respectively. The EC50 is 200 to 500 nM in assay [3], under 100 nM in assay [4] and at most 100 nM in assay [5].
In the case of `C=CCn1c(=O)c2cnc(Nc3ccc4ncccc4c3)nc2n1-c1cccc(OC2CCNCC2)n1` [Compound 242, 2-allyl-1-[6-(4-piperidyloxy)-2-pyridyl]-6-(6-quinolylamino)-1,2-dihydro-3H-1,2,5,7-tetraazainden-3-one], the half-maximal inhibitory concentration (IC50) in assay [1] is under 10 nM; in assay [2], under 20 nM. Further, the 50% effective concentration (EC50) in assay [3] lay in the range of 500 to 1000 nM; in assay [4] it was 100 to 500 nM; in assay [5], 100 to 500 nM.
Regarding `C=CCn1c(=O)c2cnc(Nc3ccc4oc(C)nc4c3)nc2n1-c1cccc(OC2CCNCC2)n1` [Compound 232, 2-allyl-6-(2-methyl-1,3-benzoxazol-5-ylamino)-1-[6-(4-piperidyloxy)-2-pyridyl]-1,2-dihydro-3H-1,2,5,7-tetraazainden-3-one], the half-inhibitory concentration (IC50) in assay [1] was under 10 nM; in assay [2], under 20 nM. Besides, the EC50 was 200 to 500 nM in assay [3] and under 100 nM in assay [4].
Take `C=CCn1c(=O)c2cnc(Nc3ccc4c(cnn4C)c3)nc2n1-c1cccc(O[C@H]2CCNC2)n1` [Compound 100, 1-{6-[(S)-3-pyrrolidinyloxy]-2-pyridyl}-2-allyl-6-(1-methyl-1H-indazol-5-ylamino)-1,2-dihydro-3H-1,2,5,7-tetraazainden-3-one]: the results for the IC50 in assay [1] and in assay [2] were under 10 nM and under 20 nM, respectively. Besides, the EC50 is over 1000 nM in assay [3], 100 to 500 nM in assay [4] and 100 to 500 nM in assay [5].
In the case of `C=CCn1c(=O)c2cnc(Nc3ccc(OCC(C)C)cc3)nc2n1-c1cccc(OC2CCN(C)CC2)n1` [Compound 257, 2-allyl-6-((4-isobutoxyphenyl)amino)-1-(6-((1-methylpiperidin-4-yl)oxy)pyridin-2-yl)-1,2-dihydro-3H-pyrazolo[3,4-d]pyrimidin-3-one], the IC50 is under 10 nM in assay [1] and under 20 nM in assay [2]. In addition, the EC50 in assay [3] is 500 to 1000 nM; in assay [4], under 100 nM; in assay [5], at most 100 nM.
Regarding `C=CCn1c(=O)c2cnc(Nc3ccc(N4CCS(=O)(=O)CC4)cc3)nc2n1-c1cccc(OC2CCN(C)CC2)n1` [Compound 369, 4-(p-{2-allyl-1-[6-(1-methyl-4-piperidyloxy)-2-pyridyl]-3-oxo-1,2-dihydro-3H-1,2,5,7-tetraazainden-6-ylamino}phenyl)-1λ^6,4-thiazinane-1,1-dione], the concentration for half-maximal inhibition (IC50) was under 10 nM in assay [1] and under 20 nM in assay [2]. Besides, the EC50 was over 1000 nM in assay [3] and under 100 nM in assay [4].
In the case of `C=CCn1c(=O)c2cnc(Nc3ccc4nccnc4c3)nc2n1-c1cccc(OC2CCN(C)CC2)n1` [Compound 241, 2-allyl-1-[6-(1-methyl-4-piperidyloxy)-2-pyridyl]-6-(6-quinoxalinylamino)-1,2-dihydro-3H-1,2,5,7-tetraazainden-3-one], the values for the IC50 in assay [1] and in assay [2] were under 10 nM and under 20 nM, respectively. The concentration for a half-maximal effect (EC50) in assay [3] is 200 to 500 nM; in assay [5], at most 100 nM.
In the case of `C=CCn1c(=O)c2cnc(Nc3cnn(C)c3)nc2n1-c1cccc(OC2CC3CCCC(C2)N3C)n1` (centres unmarked) [Compound 194, 2-allyl-1-{6-(9-methyl-9-azabicyclo[3.3.1]non-3-yloxy)-2-pyridyl}-6-(1-methyl-4-pyrazolylamino)-1,2-dihydro-3H-1,2,5,7-tetraazainden-3-one], the results for the IC50 in assay [1] and in assay [2] were under 10 nM and under 20 nM, respectively. Further, the EC50 is over 1000 nM in assay [3] and 100 to 500 nM in assay [4].
The like results for `C=CCn1c(=O)c2cnc(Nc3ccc4c(cnn4C(C)C)c3)nc2n1-c1cccc(OC2CCNCC2)n1` [Compound 265, 2-allyl-6-(1-isopropyl-1H-indazol-5-ylamino)-1-[6-(4-piperidyloxy)-2-pyridyl]-1,2-dihydro-3H-1,2,5,7-tetraazainden-3-one] were, in that order, under 10 nM, under 20 nM, 200 to 500 nM and under 100 nM.
`C=CCn1c(=O)c2cnc(Nc3ccc(N4CCSCC4)cc3)nc2n1-c1cccc(OC2CCN(C)CC2)n1` [Compound 261, 2-allyl-1-[6-(1-methyl-4-piperidyloxy)-2-pyridyl]-6-[p-(1,4-thiazinan-4-yl)phenylamino]-1,2-dihydro-3H-1,2,5,7-tetraazainden-3-one]: the results for the IC50 in assay [1] and in assay [2] were under 10 nM and under 20 nM, respectively. Moreover, the figures for the EC50 in assay [3] and in assay [5] were 200 to 500 nM and at most 100 nM, respectively.
On to `C=CCn1c(=O)c2cnc(Nc3ccc4sncc4c3)nc2n1-c1cccc(OC2CCNCC2)n1` [Compound 228, 2-allyl-6-(1,2-benzisothiazol-5-ylamino)-1-[6-(4-piperidyloxy)-2-pyridyl]-1,2-dihydro-3H-1,2,5,7-tetraazainden-3-one], for which the IC50 in assay [1] is under 10 nM; in assay [2], under 20 nM. In addition, the concentration for a half-maximal effect (EC50) in assay [3] is over 1000 nM; in assay [4], 100 to 500 nM.
The like results for `C=CCn1c(=O)c2cnc(Nc3ccc4cnoc4c3)nc2n1-c1cccc(OC2CCN(C)CC2)n1` [Compound 299, 2-allyl-6-(1,2-benzisoxazol-6-ylamino)-1-[6-(1-methyl-4-piperidyloxy)-2-pyridyl]-1,2-dihydro-3H-1,2,5,7-tetraazainden-3-one] were, in that order, under 10 nM, 20 to 100 nM, over 1000 nM and 500 to 1000 nM.
Taken in the same sequence, the figures for `C=CCn1c(=O)c2cnc(Nc3cccnc3)nc2n1-c1cccc(OC2CCNCC2)n1` [Compound 230, 2-allyl-1-[6-(4-piperidyloxy)-2-pyridyl]-6-(3-pyridylamino)-1,2-dihydro-3H-1,2,5,7-tetraazainden-3-one] were under 10 nM, under 20 nM, over 1000 nM and over 1000 nM.
